Series [1] addresses Tumour suppressor p53/oncoprotein Mdm2 (Homo sapiens, UniProt Q00987). In words: Inhibition of p53-binding to HDM2 (human MDM2) by fluorescence polarization peptide displacement assay. The series is classed as protein assay.
Series [2] is described as follows: Dissociation constant was determined; (by measuring difference in protein melting temperature). Format: physicochemical.

Chain of Tumour suppressor p53/oncoprotein Mdm2 (P04637 whole entry): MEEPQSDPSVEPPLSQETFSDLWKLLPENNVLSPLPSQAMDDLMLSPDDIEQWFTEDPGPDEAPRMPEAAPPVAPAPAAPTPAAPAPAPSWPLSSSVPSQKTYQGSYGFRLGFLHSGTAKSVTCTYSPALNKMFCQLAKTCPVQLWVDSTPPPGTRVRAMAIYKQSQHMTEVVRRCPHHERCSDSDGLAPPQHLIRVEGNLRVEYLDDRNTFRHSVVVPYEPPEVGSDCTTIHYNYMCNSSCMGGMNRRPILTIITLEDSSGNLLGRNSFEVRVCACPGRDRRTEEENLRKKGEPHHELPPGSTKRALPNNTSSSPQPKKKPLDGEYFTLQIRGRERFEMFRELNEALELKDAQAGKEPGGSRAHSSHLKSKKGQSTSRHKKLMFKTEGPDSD
Chain of Tumour suppressor p53/oncoprotein Mdm2 (Q00987 whole entry): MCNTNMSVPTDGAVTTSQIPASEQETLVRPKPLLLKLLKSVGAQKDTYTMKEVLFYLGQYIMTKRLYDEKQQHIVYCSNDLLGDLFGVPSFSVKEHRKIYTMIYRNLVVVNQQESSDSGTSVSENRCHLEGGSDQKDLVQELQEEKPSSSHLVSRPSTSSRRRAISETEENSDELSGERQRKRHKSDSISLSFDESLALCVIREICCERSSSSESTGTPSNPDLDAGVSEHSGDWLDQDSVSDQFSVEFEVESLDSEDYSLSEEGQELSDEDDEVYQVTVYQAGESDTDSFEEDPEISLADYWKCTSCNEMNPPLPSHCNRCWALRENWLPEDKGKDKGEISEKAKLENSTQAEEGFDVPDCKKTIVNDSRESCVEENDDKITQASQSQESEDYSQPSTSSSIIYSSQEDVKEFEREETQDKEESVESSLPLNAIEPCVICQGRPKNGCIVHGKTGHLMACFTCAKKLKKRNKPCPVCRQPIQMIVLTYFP

For `O=C(O)[C@H](c1ccccc1)N1C(=O)c2cc(I)ccc2NC(=O)[C@@H]1c1ccc(OC(F)(F)F)cc1`, in series [1], the 50% inhibitory concentration (IC50) was 1320 nM. Compound `CC(C)c1ccc([C@H]2C(=O)Nc3ccc(I)cc3C(=O)N2[C@H](C(=O)O)c2ccccc2)cc1` showed an IC50 in series [1] of 18000 nM. `O=C(O)[C@H](c1ccccc1)N1C(=O)c2cc(I)ccc2NC(=O)[C@@H]1c1ccccc1` showed an IC50 in series [1] of 38000 nM. On the same count and under the same terms, with `O=C(O)[C@H](c1ccc(Cl)nc1)N1C(=O)c2cc(I)ccc2NC(=O)[C@@H]1c1ccc(Cl)cc1` the figure was 1470 nM; with `O=C(O)[C@H](c1ccc(Cl)cc1)N1Cc2cc(I)ccc2NC[C@@H]1c1ccc(Cl)cc1`, more than 125000 nM. `O=C(O)[C@H](c1ccc(O)cc1)N1C(=O)c2cc(I)ccc2NC(=O)[C@@H]1c1ccc(Cl)cc1` had a Kd in series [2] of 14300 nM. In addition, the half-inhibitory concentration (IC50) in series [1] was 16500 nM.

`Cc1ccc([C@H]2C(=O)Nc3ccc(I)cc3C(=O)N2[C@H](C(=O)O)c2ccccc2)cc1` came in with a concentration for half-maximal inhibition (IC50) in series [1] of 13300 nM.

`O=C(O)[C@H](c1ccccc1)N1C(=O)c2cc(I)ccc2NC(=O)[C@@H]1c1cccc(C(F)(F)F)c1` displayed an IC50 in series [1] of 45000 nM. In turn, `O=C(O)[C@H](c1ccc(Cl)nc1)N1C(=O)c2cc(I)ccc2NC(=O)[C@@H]1c1c[nH]c2ccccc12` came in with a half-maximal inhibitory concentration (IC50) in series [1] of 55000 nM. The same measure, in the same setting: with `O=C1Nc2ccc(I)cc2C(=O)N([C@H](C(=O)O)C2CCCCC2)[C@H]1c1ccc(Cl)cc1` the figure was 64000 nM; with `O=C(O)[C@H](c1ccc(C(F)(F)F)cc1)N1C(=O)c2cc(I)ccc2NC(=O)[C@@H]1c1ccc(Cl)cc1`, 670 nM. As to `O=C1Nc2ccc(I)cc2C(=O)N([C@@H](Cc2ccccc2)C(=O)O)[C@H]1c1ccc(Cl)cc1`, the IC50 in series [1] came out at 12000 nM. For `O=C(O)[C@H](c1ccc(Cl)cc1)N1C(=O)c2ccccc2NC(=O)[C@@H]1c1ccc(Cl)cc1`, in series [2], the Kd was 7690 nM. Besides, the IC50 in series [1] stood at 14800 nM. The like results for `O=C(O)[C@H](c1ccc(Cl)cc1)N1C(=O)c2cc(I)c(Cl)cc2NC(=O)[C@@H]1c1ccc(Cl)cc1` were, in that order, 167 nM and 700 nM. The like results for `O=C(O)[C@H](c1ccc(Br)cc1)N1C(=O)c2cc(I)ccc2NC(=O)[C@@H]1c1ccc(Cl)cc1` were, in that order, 83 nM and 620 nM. In turn, `CC(C)c1ccc2c(c1)C(=O)N([C@H](C(=O)O)c1ccc(Cl)cc1)[C@@H](c1ccc(Cl)cc1)C(=O)N2` returned a concentration for half-maximal inhibition (IC50) in series [1] of 1020 nM. In series [2], `O=C(O)[C@H](c1ccc(Cl)cc1)N1C(=O)c2cc(I)ccc2NC(=O)[C@@H]1c1ccc(OC(F)(F)F)cc1` gave a Kd of 760 nM. In series [1], this compound came in with an IC50 of 83 nM. On to `O=C(O)[C@H](c1ccc(Cl)cc1)N1C(=O)c2cc(CO)ccc2NC(=O)[C@@H]1c1ccc(Cl)cc1`, for which the concentration for half-maximal inhibition (IC50) in series [1] is 3300 nM.

In turn, `Cc1ccc([C@@H](C(=O)O)N2C(=O)c3cc(I)ccc3NC(=O)[C@@H]2c2ccc(Cl)cc2)cc1` had a Kd in series [2] of 167 nM. The IC50 in series [1] turned out to be 1590 nM.

In the case of `CC(C)CC[C@@H](C(=O)O)N1C(=O)c2cc(I)ccc2NC(=O)[C@@H]1c1ccc(Cl)cc1`, the IC50 in series [1] is 12000 nM. On the same count and under the same terms, with `CC(=O)Nc1ccc2c(c1)C(=O)N([C@H](C(=O)O)c1ccc(Cl)cc1)[C@@H](c1ccc(Cl)cc1)C(=O)N2` the figure was more than 125000 nM. Same read-out and setting: with `O=C(O)[C@H](c1ccc(Cl)cc1)N1C(=O)c2cc(I)ccc2NC[C@@H]1c1ccc(Cl)cc1` the figure was 490 nM. On the same count and under the same terms, with `O=C(O)[C@H](c1ccccc1)N1C(=O)c2cc(I)ccc2NC(=O)[C@@H]1c1ccccc1C(F)(F)F` the figure was more than 125000 nM; with `CCc1ccc([C@H]2C(=O)Nc3ccc(I)cc3C(=O)N2[C@H](C(=O)O)c2ccccc2)cc1`, 7500 nM. With `CC(C)c1ccc([C@@H](C(=O)O)N2C(=O)c3cc(I)ccc3NC(=O)[C@@H]2c2ccc(Cl)cc2)cc1`, the Kd in series [2] is 83 nM. In series [1], the IC50 is 1550 nM. For the compound `CCCC[C@@H](C(=O)O)N1C(=O)c2cc(I)ccc2NC(=O)[C@@H]1c1ccc(Cl)cc1`, the IC50 in series [1] was 14000 nM. In series [2], `C#Cc1ccc2c(c1)C(=O)N([C@H](C(=O)O)c1ccc(Cl)cc1)[C@@H](c1ccc(Cl)cc1)C(=O)N2` yielded a Kd of 250 nM. The same compound registered a concentration for half-maximal inhibition (IC50) in series [1] of 870 nM. For the compound `CC(C)(C)c1ccc2c(c1)C(=O)N([C@H](C(=O)O)c1ccc(Cl)cc1)[C@@H](c1ccc(Cl)cc1)C(=O)N2`, the IC50 in series [1] was 2270 nM. As for `O=C1Nc2ccc(I)cc2C(=O)N([C@H](C(=O)O)c2ccccc2Cl)[C@H]1c1ccc(Cl)cc1`, the IC50 in series [1] worked out at 20000 nM. `N#Cc1ccc2c(c1)C(=O)N([C@H](C(=O)O)c1ccc(Cl)cc1)[C@@H](c1ccc(Cl)cc1)C(=O)N2` displayed a Kd in series [2] of 10000 nM. This compound also gave a concentration for half-maximal inhibition (IC50) in series [1] of 14800 nM. Compound `O=C(O)[C@H](c1ccc(Cl)cc1)N1C(=O)c2cc(CCO)ccc2NC(=O)[C@@H]1c1ccc(Cl)cc1` displayed an IC50 in series [1] of 2400 nM. The same measure, in the same setting: with `CCc1ccc2c(c1)C(=O)N([C@H](C(=O)O)c1ccc(Cl)cc1)[C@@H](c1ccc(Cl)cc1)C(=O)N2` the figure was 1500 nM; with `CC(C)(C)c1ccc([C@@H](C(=O)O)N2C(=O)c3cc(I)ccc3NC(=O)[C@@H]2c2ccc(Cl)cc2)cc1`, 2270 nM. As to `O=C(O)[C@H](c1ccc(Cl)cc1)N1C(=O)c2cc(I)ccc2NC(=O)[C@@H]1c1ccc(C(F)(F)F)cc1`, the IC50 in series [1] is 620 nM. In turn, `O=C(O)[C@H](c1ccc(Cl)cc1)N1C(=O)c2cc(I)ccc2NC(=O)[C@@H]1c1ccc(Cl)nc1` registered an IC50 in series [1] of 7400 nM. Compound `O=C(O)[C@H](c1ccc(Cl)cc1)N1C(=O)c2ccc(Cl)cc2NC(=O)[C@@H]1c1ccc(Cl)cc1` registered a Kd in series [2] of 1670 nM. In series [1], this compound registered a half-inhibitory concentration (IC50) of 6300 nM.

For the compound `O=C(O)[C@H](c1ccc(Cl)cc1)N1C(=O)c2cc(Br)ccc2NC(=O)[C@@H]1c1ccc(Cl)cc1`, in series [2], binding was put at a Kd of 970 nM. The compound also came in with a concentration for half-maximal inhibition (IC50) in series [1] of 830 nM. The like results for `O=C(O)[C@H](c1ccc(Cl)cc1)N1C(=O)c2cc(Cl)ccc2NC(=O)[C@@H]1c1ccc(Cl)cc1` were, in that order, 1530 nM and 830 nM. Consider `O=C(O)[C@H](c1cccc(Cl)c1)N1C(=O)c2cc(I)ccc2NC(=O)[C@@H]1c1ccc(Cl)cc1`, for which the IC50 in series [1] stood at 2700 nM.

As for `O=C(O)[C@H](c1ccc(Cl)nc1)N1C(=O)c2cc(I)ccc2NC(=O)[C@@H]1c1cc2ccccc2[nH]1`, the IC50 in series [1] worked out at 7900 nM. On to `O=C(O)[C@H](c1ccccc1)N1C(=O)c2cc(I)ccc2NC(=O)[C@@H]1c1ccc(Cl)cc1`, for which, in series [1], the IC50 came out at 2500 nM.
